Here are results for 16 compounds from patent publication US20250353852A1, “COMPOUNDS AND COMPOSITIONS THAT INHIBIT PIKFYVE” (Kineta, Inc., priority 2021, published 2025).

One assay deals with FAB1 TDP-43 yeast strain. Nature of the assay: Propidium iodide viability assay, FAB1 TDP-43 control yeast strain. Type of assay: cell-based. The note with it: for FAB1 TDP-43 (active/inactive): FAB1 TDP-43 yeast model. Here is the method: (§1) Generation of TDP-43 yeast model expressing human PIKfyve. Human PIKFYVE (“entry clone”) was cloned into […] (“destination vector”) according to standard Gateway cloning protocols (Invitrogen, Life Technologies). The resulting pAG416GPD-PIKFYVE plasmids were amplified in E. coli and plasmid identity confirmed by restriction digest and Sanger sequencing. […]+) (FIG. 2). Transformed yeast were plated on solid agar plates with complete synthetic media lacking uracil (CSM-ura) and containing 2% glucose. Individual colonies harboring the control or PIKFYVE TDP-43 plasmids were recovered. A plasmid containing wild-type TDP-43 under the transcriptional control of the GAL1 promoter and containing the […] as a selectable marker was transformed into the […]-PIKFYVE yeast strain (FIG. 1). Transformed yeast were plated on CSM-ura containing 2% glucose and 200 μg/mL G418 after overnight recovery in media lacking antibiotic. Multiple independent isolates were further evaluated for cytotoxicity and TDP-43 expression levels. Viability Assay. A control yeast strain with the wild-type yeast FAB1 gene and TDP-43 (“FAB1 TDP-43”, carries empty pAG416 plasmid), and the “PIKFYVE TDP-43” yeast strain, were assessed for toxicity using a propidium iodide viability assay. Both yeast strains were transferred from solid CSM-ura/2% glucose agar plates into 3 mL of liquid CSM-ura/2% glucose media for 6-8 hours at 30° C. with aeration. Yeast cultures were then diluted to an optical density at 600 nm wavelength (OD600) of 0.005 in 3 mL of CSM-ura/2% raffinose and grown overnight at 30° C. with aeration to an OD600 of 0.3-0.8. Log-phase overnight cultures were diluted to OD600 of 0.005 in CSM-ura containing either 2% raffinose or galactose and 150 μL dispensed into each well of a flat bottom 96-well plates. Compounds formulated in 100% dimethyl sulfoxide (DMSO) were serially diluted in DMSO and 1.5 μL diluted compound transferred to the 96-well plates using a multichannel pipet. Wells containing DMSO alone were also evaluated as controls for compound effects. Tested concentrations ranged from 15 μM to 0.11 μM. Cultures were immediately mixed to ensure compound distribution and covered plates incubated at 30° C. for 24 hours in a stationary, humified incubator. Upon the completion of incubation, cultures were assayed for viability using propidium iodide (PI) to stain for dead/dying cells. A working solution of PI was made where, for each plate, 1 μL of 10 mM PI was added to 10 mL of CSM-ura (raffinose or galactose). […] The overnight 96-well assay plate was then mixed with a multichannel pipet and 50 μL transferred to the PI-containing plate. This plate was then incubated for 30 minutes at 30° C. in the dark. A benchtop flow cytometer (Miltenyi MACSquant) was then used to assess red fluorescence (B2 channel), forward scatter, and side scatter (with following settings: gentle mix, high flow rate, fast measurement, 10,000 events). Intensity histograms were then gated for “PI-positive” or “PI-negative” using the raffinose and galactose cultures treated with DMSO as controls. The DMSO controls for raffinose or galactose-containing cultures were used to determine the window of increased cell death and this difference set to 100. All compounds were similarly gated and then compared to this maximal window to establish the percent reduction in PI-positive cells.

Assay [1] has as its system PIKFYVE TDP-43 yeast strain. Nature of the assay: Propidium iodide viability assay, PIKFYVE TDP-43 yeast strain. In kind it is cell-based. Conditions: for PIKfyve TDP-43 (active/inactive): PIKFYVE TDP-43 yeast model. How it is done: as §1
The subject of another assay is U2OS cells. Nature of the assay: EEA1 assay (endosomal vesicle enlargement as surrogate readout of PIKFyve inhibition). Type of assay: cell-based. Conditions: 3 hours of treatment. Here is the method:
EEA1 Assay. Genetic or pharmacological disruption of PIKfyve activity results in enlargement of endosomal vesicles. This enlargement was utilized as a surrogate readout of PIKFyve inhibition for routine triage of PIKfyve inhibitors. U2OS cells grown in 96-well assay plates were treated with compound diluted in DMEM media containing 10% fetal bovine serum. After 3 hours of treatment, cells were fixed with paraformaldehyde, permeabilized with 0.2% Triton-X in phosphate buffered saline and stained against EEA1. During the secondary antibody staining, cells were also stained with CellMask DeepRed and Hoechst to detect cytoplasms and nuclei respectively. Endosomal structures were visualized using a high content imager at 40× magnification. Images were analyzed using a linear classifier algorithm integrating EEA1 spot size, intensity and texture trained on images of cells treated with the potent reference compound APY0201. Compound activity was calculated by subtracting the DMSO signal and calculating percentage activity relative to maximal APY0201 activity. IC50s were then calculated from concentration vs. % inhibition data by logistic regression.

Assay [2] concerns the target full-length human PIKFYVE (Homo sapiens (Human), UniProt Q9Y2I7, L932S/Q1183K/Q995L/S1033A/S696N/T998S). Nature of the assay: PIKfyve biochemical assay (ADP-Glo Kinase assay, Carna Biosciences). Conditions: class symbols. The gist of the method:
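N-terminal GST-fused full-length PIKFYVE from baculovirus, incubated with compound, substrate and ATP in 50 mM MOPS, 1 mM DTT, pH7.2 for 1 hour at room temperature. ADP formed detected by ADP-Glo luminescence; IC50 from four-parameter logistic fit of % inhibition.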

Structures are written as SMILES. Bounds are passed on as bounds.

Chain of full-length human PIKFYVE (Q9Y2I7 whole entry S696N/L932S/Q995L/T998S/S1033A/Q1183K, the tested form may be a part): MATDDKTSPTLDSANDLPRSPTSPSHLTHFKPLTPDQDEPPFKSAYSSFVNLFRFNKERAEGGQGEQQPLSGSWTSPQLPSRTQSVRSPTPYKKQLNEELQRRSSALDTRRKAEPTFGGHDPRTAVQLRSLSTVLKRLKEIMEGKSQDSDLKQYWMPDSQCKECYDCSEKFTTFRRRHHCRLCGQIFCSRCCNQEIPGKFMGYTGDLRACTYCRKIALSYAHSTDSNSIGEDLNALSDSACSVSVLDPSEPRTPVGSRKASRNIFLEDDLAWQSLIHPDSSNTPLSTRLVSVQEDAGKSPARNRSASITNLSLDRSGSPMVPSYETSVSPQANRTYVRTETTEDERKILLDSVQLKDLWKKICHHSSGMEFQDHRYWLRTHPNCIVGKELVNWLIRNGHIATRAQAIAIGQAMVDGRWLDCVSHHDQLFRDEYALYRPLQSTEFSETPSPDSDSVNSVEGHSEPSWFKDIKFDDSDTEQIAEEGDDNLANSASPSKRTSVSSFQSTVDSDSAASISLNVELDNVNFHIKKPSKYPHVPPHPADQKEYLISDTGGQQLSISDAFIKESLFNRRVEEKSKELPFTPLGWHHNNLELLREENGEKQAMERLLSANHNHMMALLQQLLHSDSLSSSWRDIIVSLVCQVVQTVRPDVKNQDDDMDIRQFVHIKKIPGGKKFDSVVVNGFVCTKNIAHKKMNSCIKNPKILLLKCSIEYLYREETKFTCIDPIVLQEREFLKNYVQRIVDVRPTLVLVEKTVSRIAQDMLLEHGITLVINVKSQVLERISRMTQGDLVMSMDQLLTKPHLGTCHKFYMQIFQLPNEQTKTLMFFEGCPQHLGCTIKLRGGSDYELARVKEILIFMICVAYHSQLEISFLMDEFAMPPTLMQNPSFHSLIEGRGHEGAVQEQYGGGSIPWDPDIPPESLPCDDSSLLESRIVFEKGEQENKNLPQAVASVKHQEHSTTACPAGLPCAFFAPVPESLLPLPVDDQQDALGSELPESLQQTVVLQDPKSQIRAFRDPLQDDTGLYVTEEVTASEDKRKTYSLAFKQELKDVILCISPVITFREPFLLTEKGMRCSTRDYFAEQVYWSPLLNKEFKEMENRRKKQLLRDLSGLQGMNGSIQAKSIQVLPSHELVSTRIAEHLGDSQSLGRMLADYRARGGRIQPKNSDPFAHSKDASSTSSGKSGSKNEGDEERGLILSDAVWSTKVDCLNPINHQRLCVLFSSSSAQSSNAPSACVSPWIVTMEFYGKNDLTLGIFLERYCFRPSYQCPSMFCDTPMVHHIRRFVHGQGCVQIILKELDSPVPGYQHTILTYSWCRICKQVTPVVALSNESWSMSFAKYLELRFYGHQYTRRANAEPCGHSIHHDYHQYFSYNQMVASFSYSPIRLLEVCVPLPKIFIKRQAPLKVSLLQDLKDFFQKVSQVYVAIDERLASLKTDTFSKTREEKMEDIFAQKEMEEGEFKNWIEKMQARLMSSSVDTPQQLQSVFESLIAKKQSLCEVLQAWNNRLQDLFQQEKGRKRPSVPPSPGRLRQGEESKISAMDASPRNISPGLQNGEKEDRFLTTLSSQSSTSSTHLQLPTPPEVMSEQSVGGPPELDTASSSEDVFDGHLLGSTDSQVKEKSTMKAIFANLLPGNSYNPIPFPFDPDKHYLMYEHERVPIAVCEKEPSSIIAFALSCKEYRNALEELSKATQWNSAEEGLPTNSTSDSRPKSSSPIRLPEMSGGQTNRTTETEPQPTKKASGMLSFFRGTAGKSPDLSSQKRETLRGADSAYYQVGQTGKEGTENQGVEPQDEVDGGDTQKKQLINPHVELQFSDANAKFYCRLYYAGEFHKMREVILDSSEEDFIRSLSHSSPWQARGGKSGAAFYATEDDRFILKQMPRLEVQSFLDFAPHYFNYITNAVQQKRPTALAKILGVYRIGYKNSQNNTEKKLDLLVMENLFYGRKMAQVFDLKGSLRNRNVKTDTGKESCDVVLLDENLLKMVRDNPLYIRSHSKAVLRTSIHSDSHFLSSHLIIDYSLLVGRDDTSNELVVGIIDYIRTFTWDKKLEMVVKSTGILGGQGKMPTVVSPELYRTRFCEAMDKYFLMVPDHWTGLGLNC

`Cc1cccc(/C=N/Nc2cc(N3CCOCC3)n3nc(-c4ccncc4)cc3n2)c1` [drawing 327]: the “FAB1 TDP-43 (active/inactive)” value in the assay with FAB1 TDP-43 yeast strain is on record as “Inactive”. Moreover, in assay [1], the “PIKfyve TDP-43 (active/inactive)” value is “Active”.

For the compound `Cn1c(-c2ccncc2)nc2c(N3CCOCC3)ncnc21`, the “FAB1 TDP-43 (active/inactive)” value in the assay on FAB1 TDP-43 yeast strain is reported as “Inactive”. In addition, the “PIKfyve TDP-43 (active/inactive)” value in assay [1] is on record as “Inactive”.

With `Cc1cccc(/C=N/Nc2nc(N3CCOCC3)c3nc(-c4ccncc4)n(C)c3n2)c1` [drawing 329], the “FAB1 TDP-43 (active/inactive)” value with FAB1 TDP-43 yeast strain is “Inactive”. Also, the “PIKfyve TDP-43 (active/inactive)” value in assay [1] was “Active”.

In the case of `Cc1cccc(/C=N/Nc2cc(N3CCOCC3)n3nc(-c4ccncc4)cc3n2)c1` [APYO201, reference compound], the “viable cells in FAB1 TDP-43” value in the assay with FAB1 TDP-43 yeast strain (across a range of compound concentrations (only 0.23 μM is shown), FIG. 5) is “no increase in viable cells”. For the same compound, in assay [1] (0.23 μM, FIG. 6), the “population of propidium iodide-positive dead cells in PIKFYVE TDP-43” value is given as “reduced the population of propidium iodide-positive dead cells”.

For `Oc1cc(-c2ccccc2)nn1-c1cc(N2CCOCC2)n2nc(-c3ccncc3)cc2n1` [Compound 51, 1-(7-morpholino-2-(pyridin-4-yl)pyrazolo[1,5-a]pyrimidin-5-yl)-3-phenyl-1H-pyrazol-5-ol], the IC50 was 1000 to 10000 nM in the assay with U2OS cells (Homo sapiens, class symbols) and under 10 nM in assay [2].

In the case of `CN(C)c1cc(N2CCOCC2)n2nc(-c3ccncc3)cc2n1`, in the assay on FAB1 TDP-43 yeast strain, the “FAB1 TDP-43 (active/inactive)” value is listed as “Inactive”. In assay [1], the “PIKfyve TDP-43 (active/inactive)” value is reported as “Inactive”.

Turning to `Cn1ccc(-c2cccc(-c3cc(N4CCOCC4)n4nc(-c5ccncc5)cc4n3)c2)n1` [Compound 142, 4-(5-(3-(1-methyl-1H-pyrazol-3-yl)phenyl)-2-(pyridin-4-yl)pyrazolo[1,5-a]pyrimidin-7-yl)morpholine], the IC50 with U2OS cells (Homo sapiens, class symbols) fell in the range of 1000 to 10000 nM; in assay [2] it was 10 to 100 nM.

As to `Cn1ccc(-c2cccc(-c3cc(N4CCOCC4)n4nc(N5CCC(O)CC5)cc4n3)c2)n1` [Compound 152, 1-(5-(3-(1-methyl-1H-pyrazol-3-yl)phenyl)-7-morpholinopyrazolo[1,5-a]pyrimidin-2-yl)piperidin-4-ol], in the assay on U2OS cells (Homo sapiens, class symbols), the IC50 lay in the range of 1000 to 10000 nM.

`c1ccc(-c2nccc(-c3cc(N4CCOCC4)n4nc(C5CCCO5)cc4n3)n2)cc1` (stereo not shown) [Compound 97, 4-(5-(2-phenylpyrimidin-4-yl)-2-(tetrahydrofuran-2-yl)pyrazolo[1,5-a]pyrimidin-7-yl)morpholine]: the IC50 with U2OS cells (Homo sapiens, class symbols) is 1000 to 10000 nM; in assay [2], 10 to 100 nM.

In the case of `COc1nn(-c2cc(N3CCOCC3)n3nc(-c4ccncc4)cc3n2)cc1-c1ccccc1` [Compound 66, 4-(5-(3-methoxy-4-phenyl-1H-pyrazol-1-yl)-2-(pyridin-4-yl)pyrazolo[1,5-a]pyrimidin-7-yl)morpholine], the IC50 in the assay on U2OS cells (Homo sapiens, numeric values) was over 3000 nM; in assay [2], over 10000 nM.

Turning to `COc1cccc(-c2ccn(-c3cc(N4CCOCC4)n4nc(-c5ccncc5)cc4n3)n2)c1` [Compound 71, 4-(5-(3-(3-methoxyphenyl)-1H-pyrazol-1-yl)-2-(pyridin-4-yl)pyrazolo[1,5-a]pyrimidin-7-yl)morpholine], the IC50 was 100 to 1000 nM in the assay with U2OS cells (Homo sapiens, class symbols) and 10 to 100 nM in assay [2].

Consider `Cc1cccc(/C=N/Nc2cc(N3CC4CC3CO4)n3nc(-c4ccncc4)cc3n2)c1` (stereo not shown) [drawing 328], for which, in the assay on FAB1 TDP-43 yeast strain, the “FAB1 TDP-43 (active/inactive)” value is “Inactive”. In addition, the “PIKfyve TDP-43 (active/inactive)” value in assay [1] is listed as “Active”.

Turning to `Cc1cccc(-c2ccn(-c3cc(N4CCOCC4)n4nc(-c5cccnc5)cc4n3)n2)c1` [Compound 79], the IC50 in the assay with U2OS cells (Homo sapiens, class symbols) was 100 to 1000 nM; in assay [2] it was under 10 nM.

For the compound `COc1nn(-c2cc(N3CCOCC3)n3nccc3n2)cc1-c1ccccc1` [Compound 77, 4-(5-(3-methoxy-4-phenyl-1H-pyrazol-1-yl)pyrazolo[1,5-a]pyrimidin-7-yl)morpholine], the IC50 is 1000 to 10000 nM in the assay on U2OS cells (class symbols) and over 10000 nM in assay [2].

`N#Cc1cc(N2CCOCC2)n2nc(-c3ccncc3)cc2n1` [drawing 332]: the “FAB1 TDP-43 (active/inactive)” value with FAB1 TDP-43 yeast strain was “Inactive”. The “PIKfyve TDP-43 (active/inactive)” value in assay [1] is listed as “Inactive”.

Consider `Cc1cccc(-c2ccn(-c3cc(N4CCOCC4)n4nc(-c5ccncc5)cc4n3)n2)c1` [Compound 65, 4-(2-(pyridin-4-yl)-5-(3-(m-tolyl)-1H-pyrazol-1-yl)pyrazolo[1,5-a]pyrimidin-7-yl)morpholine], for which the IC50 in the assay with U2OS cells (Homo sapiens, class symbols) is 100 to 1000 nM; in assay [2], 10 to 100 nM.
